Measurements taken from ChEMBL document CHEMBL5506053, “Explorations of Agonist Selectivity for the α9* nAChR with Novel Substituted Carbamoyl/Amido/Heteroaryl Dialkylpiperazinium Salts and Their Therapeutic Implications in Pain and Inflammation” (J Med Chem, 2024).
Activity calls are given as the source filed them. The rule behind the calls is not given here.

What was measured:
[1] = target: T1, Neuronal acetylcholine receptor; alpha4/beta2 (Homo sapiens) (UniProt P17787+P43681); assay: (§1) Inhibition of acetylcholine induced response in human alpha4beta2 nAChR expressed in xenopus laevis oocytes assessed as fold change at 30 uM preincubated with 3 uM acetylcholine followed by compound administration for 12 sec and measured 181 sec post washout by two-electrode voltage-clamp electrophysiology method relative to acetylcholine alone; type: cell-based; details: Oocyte
[2] = tested on: Oocyte; assay: as §1, with “mouse muscle alpha1beta1epsilondelta” for “human alpha4beta2”; type: cell-based
[3] = target: T1, Neuronal acetylcholine receptor; alpha4/beta2 (Homo sapiens); assay: Agonist activity at human alpha4beta2 nAChR expressed in xenopus laevis oocytes at 30 uM measured after 120 secs by two-electrode voltage-clamp electrophysiology method relative to control; type: cell-based; details: Oocyte, time 120.0 sec
[4] = target: T2, Neuronal acetylcholine receptor subunit alpha-7 (Homo sapiens, UniProt P36544); assay: (§2) Agonist activity at human alpha7 nAChR expressed as xenopus laevis oocytes assessed as increase in receptor desensitization by measuring fold change in maximum response (Imax) measured after 120 secs by two-electrode voltage-clamp electrophysiology method relative to acetylcholine; type: cell-based; details: Oocyte, filed as agonist, time 120.0 sec
[5] = target: T3, Neuronal acetylcholine receptor; alpha3/beta4 (Homo sapiens) (UniProt P30926+P32297); assay: as §1, with “alpha3beta4” for “alpha4beta2”, “100” for “30”; type: cell-based; details: Oocyte
[6] = target: T4, Neuronal acetylcholine receptor subunit alpha-9 (Homo sapiens, UniProt Q9UGM1); assay: Partial agonist activity at human alpha9 nAChR expressed as xenopus laevis oocytes assessed as increase in receptor desensitization by measuring fold change in maximum response (Imax) measured after 120 secs by two-electrode voltage-clamp electrophysiology method relative to acetylcholine; type: cell-based; details: Oocyte, filed as partial agonist, time 120.0 sec
[7] = target: T3, Neuronal acetylcholine receptor; alpha3/beta4 (Homo sapiens); assay: Agonist activity at human alpha3beta4 nAChR expressed in xenopus laevis oocytes at 100 uM measured after 120 secs by two-electrode voltage-clamp electrophysiology method relative to control; type: cell-based; details: Oocyte, time 120.0 sec
[8] = target: T2, Neuronal acetylcholine receptor subunit alpha-7; assay: as §2, with “peak current” for “maximum”, “at 30 uM incubated for” for “(Imax) measured after”, “secs presence of PNU-120596” for “secs”; type: cell-based; details: Oocyte, filed as agonist, time 120.0 sec
[9] = tested on: Oocyte; assay: Agonist activity at mouse muscle alpha1beta1epsilondelta nAChR expressed in xenopus laevis oocytes at 30 uM measured after 120 secs by two-electrode voltage-clamp electrophysiology method relative to control; type: cell-based; details: time 120.0 sec
[10] = target: T5, Neuronal acetylcholine receptor; alpha9/alpha10 (Homo sapiens) (UniProt Q9UGM1+Q9GZZ6); assay: Agonist activity at human alpha9alpha10 nAChR expressed as xenopus laevis oocytes assessed as increase in receptor desensitization by measuring fold change in maximum response (Imax) measured after 120 secs by two-electrode voltage-clamp electrophysiology method relative to acetylcholine; type: cell-based; details: Oocyte, filed as agonist, time 120.0 sec
[11] = Selectivity ratio for agonist activity at alpha7 nAChR (unknown origin) to agonist activity at alpha9 nAChR (unknown origin)
[12] = target: T4, Neuronal acetylcholine receptor subunit alpha-9; assay: Agonist activity at human alpha9 nAChR expressed as xenopus laevis oocytes assessed as increase in receptor desensitization by measuring fold change in maximum response (Imax) measured after 120 secs by two-electrode voltage-clamp electrophysiology method relative to acetylcholine; type: cell-based; details: Oocyte, filed as agonist, time 120.0 sec
[13] = target: T2, Neuronal acetylcholine receptor subunit alpha-7; assay: Partial agonist activity at human alpha7 nAChR expressed as xenopus laevis oocytes assessed as increase in receptor desensitization by measuring fold change in maximum response (Imax) measured after 120 secs by two-electrode voltage-clamp electrophysiology method relative to acetylcholine; type: cell-based; details: Oocyte, filed as partial agonist, time 120.0 sec
[14] = cells; details: Homo sapiens, THP-1
Description: Inhibition of ATP-mediated IL-1beta release in LPS primed BzATP induced monocytic human THP-1 cells primed with LPS for 5 hrs followed by BzATP and compound addition for 40 mins by ELISA

[15] = target: T2, Neuronal acetylcholine receptor subunit alpha-7; assay: Agonist activity at alpha7 nAChR (unknown origin)
[16] = tested on: THP-1; assay: Cytotoxicity against monocytic human THP-1 cells assessed as effect on lactate dehydrogenase activity in supernatant; type: toxicity, cell-based
[17] = tested on: PBMC; assay: Inhibition of ATP-mediated IL-1beta release in LPS primed BzATP induced human PBMC cells at 100 uM primed with LPS for 3 hrs followed by BzATP and compound addition for 30 mins by ELISA; type: functional, cell-based
[18] = target: Neuronal acetylcholine receptor; alpha9/alpha10 (Homo sapiens, UniProt Q9GZZ6+Q9UGM1); assay: Agonist activity at alpha9alpha10 nAChR (unknown origin); type: protein-complex assay
[19] = tested on: THP-1; assay: Induction of IL-1beta release in LPS primed monocytic human THP-1 cells at 10 uM primed with LPS for 5 hrs followed by compound addition and further incubated for 40 mins by ELISA; type: functional, cell-based
[20] = target: T4, Neuronal acetylcholine receptor subunit alpha-9; assay: Agonist activity at alpha9 nAChR (unknown origin)
[21] = tested on: PBMC; assay: Inhibition of ATP-mediated IL-1beta release in LPS primed BzATP induced human PBMC cells at 100 fM primed with LPS for 3 hrs followed by BzATP and compound addition for 30 mins by ELISA; type: functional, cell-based
[22] = target: T5, Neuronal acetylcholine receptor; alpha9/alpha10 (Homo sapiens); assay: Partial agonist activity at human alpha9alpha10 nAChR expressed as xenopus laevis oocytes assessed as increase in receptor desensitization by measuring fold change in maximum response (Imax) measured after 120 secs by two-electrode voltage-clamp electrophysiology method relative to acetylcholine; type: cell-based; details: Oocyte, filed as partial agonist, time 120.0 sec

T4 sequence (Q9UGM1 whole entry): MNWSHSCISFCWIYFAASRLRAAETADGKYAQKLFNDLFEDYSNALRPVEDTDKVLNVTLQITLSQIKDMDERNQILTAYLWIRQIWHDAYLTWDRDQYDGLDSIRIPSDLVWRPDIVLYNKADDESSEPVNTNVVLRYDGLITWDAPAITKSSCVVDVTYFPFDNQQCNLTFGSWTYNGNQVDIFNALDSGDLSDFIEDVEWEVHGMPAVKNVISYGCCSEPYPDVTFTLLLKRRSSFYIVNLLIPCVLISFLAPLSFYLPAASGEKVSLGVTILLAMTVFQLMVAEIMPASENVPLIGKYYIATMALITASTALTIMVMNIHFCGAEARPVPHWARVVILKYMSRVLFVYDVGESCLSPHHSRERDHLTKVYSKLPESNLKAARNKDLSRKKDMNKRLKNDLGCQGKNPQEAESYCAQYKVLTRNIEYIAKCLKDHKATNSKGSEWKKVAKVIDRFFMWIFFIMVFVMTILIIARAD
T2 sequence (P36544 whole entry): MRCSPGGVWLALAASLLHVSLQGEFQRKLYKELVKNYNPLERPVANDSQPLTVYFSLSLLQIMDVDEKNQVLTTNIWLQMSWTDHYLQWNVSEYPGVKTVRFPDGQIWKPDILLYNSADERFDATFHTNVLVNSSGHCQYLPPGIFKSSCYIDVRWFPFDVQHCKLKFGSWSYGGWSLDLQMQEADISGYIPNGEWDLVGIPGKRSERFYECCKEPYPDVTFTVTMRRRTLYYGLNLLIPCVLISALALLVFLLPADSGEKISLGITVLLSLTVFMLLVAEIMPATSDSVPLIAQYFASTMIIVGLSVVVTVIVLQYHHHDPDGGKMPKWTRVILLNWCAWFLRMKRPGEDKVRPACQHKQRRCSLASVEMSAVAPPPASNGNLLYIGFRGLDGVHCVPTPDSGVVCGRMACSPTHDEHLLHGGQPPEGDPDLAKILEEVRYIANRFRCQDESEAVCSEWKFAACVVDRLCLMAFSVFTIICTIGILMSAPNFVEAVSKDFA
Chain of Neuronal acetylcholine receptor; alpha9/alpha10 (Q9UGM1 whole entry): as the sequence (Q9UGM1 whole entry) above
Chain of Neuronal acetylcholine receptor; alpha9/alpha10 (Q9GZZ6 whole entry): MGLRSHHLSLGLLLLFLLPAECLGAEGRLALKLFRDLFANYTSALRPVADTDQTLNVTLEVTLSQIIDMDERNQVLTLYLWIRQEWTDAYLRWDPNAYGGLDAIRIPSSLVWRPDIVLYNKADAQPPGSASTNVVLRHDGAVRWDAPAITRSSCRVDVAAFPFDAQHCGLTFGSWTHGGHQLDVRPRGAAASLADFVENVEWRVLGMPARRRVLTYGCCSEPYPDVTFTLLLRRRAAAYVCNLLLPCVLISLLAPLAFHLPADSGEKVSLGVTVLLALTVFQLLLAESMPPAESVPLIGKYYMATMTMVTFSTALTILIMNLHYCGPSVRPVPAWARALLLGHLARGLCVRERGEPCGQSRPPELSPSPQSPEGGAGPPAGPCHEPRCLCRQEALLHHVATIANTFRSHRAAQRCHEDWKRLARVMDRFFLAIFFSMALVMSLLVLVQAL

SMILES | fold change (FC) [1] | fold change (FC) [2] | Activity [3] | fold change (FC) [4] | fold change (FC) [5] | fold change (FC) [6] | Activity [7] | fold change (FC) [8] | Activity [9] | fold change (FC) [10] | fold change (FC) [12] | further results
CC[N+]1(CC)CCN(c2ccc(C(=O)N3CCCC3)cc2)CC1 | 0.919 | 0.541 | < 1% | 0.06 | 0.849 | 0.69 | < 1% | 0.01 | < 1% | 0.56 |  | 
CC[N+]1(CC)CCN(c2ccc(C(N)=O)cc2)CC1 |  |  |  |  |  |  |  | 0.18 |  | 1.19 | 0.8 | Selectivity ratio [11]: 66; fold change (FC) [13]: 0.34
CC[N+]1(CC)CCN(c2ccc(C(=O)Nc3cccc(C)c3)cc2)CC1 | 0.807 | 0.555 | < 1% |  | 1.04 |  | < 1% | 0.17 | < 1% | 1.12 | 1.25 | fold change (FC) [13]: 0.6
CC[N+]1(CC)CCN(c2ccc(C(=O)Nc3cccc(C)n3)cc2)CC1.[I-] |  |  |  |  |  |  |  |  |  |  |  | IC50 [14]: 14 µM; EC50 [15]: 6.4 µM; Activity [16]: Non-Toxic; inhibition [17]: inactive; EC50 [18]: 0.98 µM; Activity [19]: inactive; EC50 [20]: 0.66 µM; inhibition [21]: Active
CC[N+]1(C)CCN(c2ccc(NC(C)=O)cc2)CC1 | 1.19 | 0.409 | < 1% |  | 0.798 |  | < 1% | 0.15 | < 1% |  | 0.75 | fold change (FC) [22]: 3.3
Cc1cccc(NC(=O)c2ccc(N3CC[N+](C)(C)CC3)cc2)n1 | 0.912 | 0.709 | < 1% | 0.57 | 0.838 | 0.51 | < 1% | 0.16 | < 1% | 0.89 |  | 
CCCNC(=O)c1ccc(N2CC[N+](CC)(CC)CC2)cc1 | 0.946 | 0.709 | < 1% | 0.38 | 0.65 |  | < 1% | 0.19 | < 1% |  | 1.13 | fold change (FC) [22]: 0.79
CC[N+]1(CC)CCN(c2ccc(-n3cccc3)cc2)CC1 | 0.709 | 0.691 | < 1% | 0.041 | 0.387 | 0.27 | < 1% | 0.08 | < 1% | 0.17 |  | 
